From patent publication US20150368248A1, “2-SUBSTITUTED-6-BIARYLMETHYLAMINO-9-CYCLOPENTYL-9H-PURINE DERIVATIVES, USE THEREOF AS MEDICAMENTS, AND PHARMACEUTICAL COMPOSITIONS” (UNIVERZITA PALACKEHO V OLOMOUCI, priority 2013, published 2015)
Read-outs that look alike come from different tables or passages of the source.

Legend:
[1] = test system: HepG2; assay: MTT cytotoxicity assay (Example 30); assay type: cell-based; settings: Homo sapiens, HepG2; Table 3; read-out: Inhibitory concentration IC50, HepG2 (reference molecules)
From the text: Cytotoxicity of the compounds is the major property determining their anticancer effect in vivo. One of the parameters used, as the basis for cytotoxicity assays, is the metabolic activity of viable cells. For example, a microtiter assay, which uses (3-(4,5-Dimethylthiazol-2-yl)-2,5-diphenyltetrazolium bromide (MTT), is widely used to quantitate cell proliferation and cytotoxicity. For instance, this assay is used in drug screening programs and in chemosensitivity testing. Because only metabolically active living cells reduce MTT to correspond purple formazan dye, these assays detect viable cells exclusively. The quantity of reduced MTT corresponds to the number of vital cells in the culture.
(§1) We have been using the following cell lines: HUH-7 and PLC/PRF/5 cell lines were maintained in DMEM supplemented with 10% fetal bovine serum, penicillin (100 U/ml) and streptomycin (100 μg/ml). Unique HCC-1.2 (3p) and HCC-1.1 (3sp) cell lines (Zilj et al., 2009, Future Oncol, 5(8):1169-79) and Hep3B cells were cultivated in RPMI supplemented with 10% fetal bovine serum, penicillin (100 U/ml) and streptomycin (100 μg/ml). HepG2 cell line was maintained in EMEM supplemented with 10% fetal bovine serum, sodium pyruvate (0.11 g/1), penicillin (100 U/ml) and streptomycin (100 μg/ml). All cell lines were cultivated at 37° C. in 5% CO2. For cytotoxicity assays, 3000 cells (10000 cells in case of HepG2 cell line) were seeded into each well of 96 well plate and the next day tested compounds were added at various concentrations in triplicates. Three days after drug addition MTT stock solution (5 mg/ml) was added into each well and incubated for 4 h. After this incubation period, produced formazan was dissolved by DMSO and final absorbance was measured at 570 nm with Synergy H4 Hybrid Multi-Mode Microplate Reader.

[2] = test system: human umbilical vein endothelial cells (HUVEC); assay: HUVEC proliferation, Calcein AM; assay type: cell-based; settings: Homo sapiens, HUVEC, read-out: Inhibitory concentration for HUVEC cells - IC50
Description: Novel 2-substituted-6-biarylmethylamino-9-cyclopentyl-9H-purine derivatives were tested for their potential anti-angiogenic properties; we analyzed its influence on the proliferation (Tab. 9), migration and tube formation of human umbilical vein endothelial cells (HUVEC). Confluent HUVECs were seeded in 96-well microtiter plates to detect their proliferation for 24 or 72 h using Calcein AM solution (Invitrogen) and a Fluoroskan Ascent microplate reader (Labsystems) as described previously (Krystof et al., 2011, Eur J Med Chem. 2011 September; 46(9):4289-94).

[3] = test system: PLC/PRF/5; assay: MTT cytotoxicity assay (Example 30); assay type: cell-based; settings: Homo sapiens, PLC-PRF-5; Table 3; read-out: Inhibitory concentration IC50, PLC/PRF/5 (reference molecules)
Description: (§2) Cytotoxicity of the compounds is the major property determining their anticancer effect in vivo. One of the parameters used, as the basis for cytotoxicity assays, is the metabolic activity of viable cells.
as §1, with “Unique HCC-1.2 (3p) and HCC-1.1 (3sp) cell lines (Zilj et al., 2009, Future Oncol, 5(8):1169-79) and Hep3B cells were cultivated in RPMI supplemented with 10% fetal bovine serum, penicillin (100 U/ml) and streptomycin (100 μg/ml).” left out

[4] = test system: HCC-1.1 (3sp); assay: MTT cytotoxicity assay (Example 30); assay type: cell-based; settings: Homo sapiens; Table 3; read-out: Inhibitory concentration IC50, AKH3sp (reference molecules)
Description: as §2
as §1, with “Unique HCC-1.2 (3p) and HCC-1.1 (3sp) cell lines (Zilj et al., 2009, Future Oncol, 5(8):1169-79) and Hep3B cells were cultivated in RPMI supplemented with 10% fetal bovine serum, penicillin (100 U/ml) and streptomycin (100 μg/ml).” left out

[5] = test system: HUH-7; assay: MTT cytotoxicity assay (Example 30); assay type: cell-based; settings: Homo sapiens, Huh-7; Table 3; read-out: Inhibitory concentration IC50, HUH-7 (reference molecules)
Description: as §2
as §1, with “Unique HCC-1.2 (3p) and HCC-1.1 (3sp) cell lines (Zilj et al., 2009, Future Oncol, 5(8):1169-79) and Hep3B cells were cultivated in RPMI supplemented with 10% fetal bovine serum, penicillin (100 U/ml) and streptomycin (100 μg/ml).” left out

[6] = test system: HCC-1.2 (3p); assay: MTT cytotoxicity assay (Example 30); assay type: cell-based; settings: Homo sapiens, HCC-1.2; Table 3; read-out: Inhibitory concentration IC50, AKH3p (reference molecules)
Description: as §2
as §1, with “Unique HCC-1.2 (3p) and HCC-1.1 (3sp) cell lines (Zilj et al., 2009, Future Oncol, 5(8):1169-79) and Hep3B cells were cultivated in RPMI supplemented with 10% fetal bovine serum, penicillin (100 U/ml) and streptomycin (100 μg/ml).” left out

[7] = test system: Hep3B; assay: MTT cytotoxicity assay (Example 30); assay type: cell-based, human; settings: Homo sapiens, Hep3B; Table 3; read-out: Inhibitory concentration IC50, Hep3B (reference molecules)
Description: as §2
as §1, with “Unique HCC-1.2 (3p) and HCC-1.1 (3sp) cell lines (Zilj et al., 2009, Future Oncol, 5(8):1169-79) and Hep3B cells were cultivated in RPMI supplemented with 10% fetal bovine serum, penicillin (100 U/ml) and streptomycin (100 μg/ml).” left out

| SMILES | IC50 [1] [µM] | IC50 ([2]; 24 h) [µM] | IC50 ([2]; 72 h) [µM] | IC50 [3] [µM] | IC50 [4] [µM] | IC50 [5] [µM] | IC50 [6] [µM] | IC50 [7] [µM] |
| --- | --- | --- | --- | --- | --- | --- | --- | --- |
| COc1cccc2c1C(=O)c1c(O)c3c(c(O)c1C2=O)C[C@@](O)(C(=O)CO)C[C@@H]3O[C@H]1C[C@H](N)[C@H](O)[C@H](C)O1 [doxorubicin, reference compound] | 1.38 | > 6.6 | > 6.6 | 0.67 | 0.27 | 1.25 | 0.54 | 0.46 |
| CNC(=O)c1cc(Oc2ccc(NC(=O)Nc3ccc(Cl)c(C(F)(F)F)c3)cc2)ccn1 [sorafenib, reference compound] | 5.85 | > 50 | > 10 | 4.06 | 6.39 | 2.86 | 4.42 | 3.74 |
